Reference: patent US10745416B2, “Macrocyclic compounds for treating disease” (Turning Point Therapeutics, Inc., priority 2017, dated 2020)

Experiments:
RET = biological target: T1, RET (Homo sapiens, UniProt P07949, C634W); assay: Immunoblotting for cellular RET phosphorylation in TT cells; format: cell-based; conditions: 4 hours treatment, read-out: suppression of RET autophosphorylation IC50
T1 construct: host or cells: TT (human medullary thyroid carcinoma)
Method: Human medulla thyroid carcinoma cell line TT (containing RET […] mutation) and acute myelogenous cell line KG-1 were purchased from ATCC. Human colon cancer cell line KMI2 (containing TPM3-TRKA) was obtained from NCI. Half a million cells per well were seeded in 24 well plate for 24 hrs, and then treated with compounds for 4 hours. Cells were collected after treatment and lysed in RIPA buffer (50 mM Tris, pH 7.4, 150 mM NaCl, 1% NP-40, 0.5% Deoxycholate, 0.1% SDS) supplemented with 10 mM EDTA, 1× Halt protease and phosphatase inhibitors (Thermo Scientific). Protein lysates (approximately […]) was resolved on 4-12% Bolt Bis-Tris precasted gels with MES running buffer (Life Technologies), transferred to nitrocellulose membranes using Trans-Blot Turbo Transfer System (Bio-Rad) and detected with antibodies targeting phosphorylated RET (Y905) (Cell Signaling Technology), total RET (Cell Signaling Technology), actin (Cell Signaling Technology). Antibodies were typically incubated overnight at 4° C. with gentle shake, followed by washes and incubation with the appropriate HRP-conjugated secondary antibodies. […] The relative density of the chemiluminescent bands were quantified via Image Studio Digits from LICOR. The half inhibitory concentration (IC50) value is calculated using non-linear regression analysis through GraphPad Prism software (GraphPad, Inc., San Diego, Calif.).

BaF3 KIF5B-RET WT tumors = assay: BaF3 KIF5B-RET WT subcutaneous xenograft tumor model; format: in vivo, SCID/Beige mice
Method: BaF3 KIF5B-RET WT and BaF3 KIF5B-RET G810R cells were cultured using standard techniques in RPMI-1640 medium (Corning, Inc) with 10% fetal bovine serum (Thermo Fisher Scientific, Inc) at 37° C. in a humidified atmosphere with 5% CO2. TI cells were cultured using standard techniques in F-12K medium (Corning, Inc) with 10% fetal bovine serum (Thermo Fisher Scientific, Inc) at 37° C. in a humidified atmosphere with 5% CO2. For implantation, cells were harvested and pelleted by centrifugation at 250 g for 2 minutes. Cells were washed once and resuspended in serum-free medium supplemented with 50% matrigel (v/v).
For cell derived xenograft models, female SCID/Beige mice (5-8 weeks of age) were obtained from Charles River Laboratory and were housed in Innovive IVC disposable cages on HEPA filtered ventilated racks with ad libitum access to rodent chow and water. Five million cells in 100 μL serum-free medium supplemented with 50% matrigel (Corning, Inc) were implanted subcutaneously in the right flank region of the mouse. Tumor size and body weight were measured on designated days. Tumor size was measured with an electronic caliper and tumor volume was calculated as the product of length*width^2*0.5. Mice were randomized by tumor size into treatment groups when tumor volume reached about 200 mm^3 and Compound 5 was administered orally (BID) at determined doses.
The C634W mutation of RET in T cells underlies the molecular mechanism for tumor growth. SCID/Beige mice bearing TT tumors (at the average tumor size of around 200 mm^3) were dosed with Compound 5 orally BID for 27 days (FIG. 4A). The control group of mice were given vehicle only. Tumor volume (TMV) was measured by caliper on the indicated days and is shown at mean±sem in FIG. 4A. […] In the case of TMVTreated Last Day of Treatment<TMVTreated First Day of Treatment, tumor regression (REG) was calculated as 100%*(1−TMVTreated Last Day of Treatment/TMVTreated First Day of Treatment). […]
In the BaF3 KIF5B-RET WT and BaF3 KIF5B-RET G810R xenograft tumor models, the growth of tumor is presumably dependent on the extopic RET activity. […] Tumor volume (TMV) was measured by caliper on the indicated days and is shown at mean±sem in FIG. 5A. The mean TMVs are lower in the groups treated with compound 5 at 1 mg/kg BID (p>0.05) and 5 mg/kg BID (p<0.0001) compared to that of the control group as determined by two-way repeated ANOVA followed by post hoc analysis. […] Tumor volume (TMV) was measured by caliper on the indicated days and is shown at mean±sem in FIG. 6A. The mean TMVs are lower in the groups treated with compound 5 at 1 mg/kg BID (p>0.05), 5 mg/kg BID (p<0.0001) and 10 mg/kg BID (p<0.0001) compared to that of the control group as determined by two-way ANOVA followed by post hoc analysis.

T1 sequence (P07949 29-1114 C634W): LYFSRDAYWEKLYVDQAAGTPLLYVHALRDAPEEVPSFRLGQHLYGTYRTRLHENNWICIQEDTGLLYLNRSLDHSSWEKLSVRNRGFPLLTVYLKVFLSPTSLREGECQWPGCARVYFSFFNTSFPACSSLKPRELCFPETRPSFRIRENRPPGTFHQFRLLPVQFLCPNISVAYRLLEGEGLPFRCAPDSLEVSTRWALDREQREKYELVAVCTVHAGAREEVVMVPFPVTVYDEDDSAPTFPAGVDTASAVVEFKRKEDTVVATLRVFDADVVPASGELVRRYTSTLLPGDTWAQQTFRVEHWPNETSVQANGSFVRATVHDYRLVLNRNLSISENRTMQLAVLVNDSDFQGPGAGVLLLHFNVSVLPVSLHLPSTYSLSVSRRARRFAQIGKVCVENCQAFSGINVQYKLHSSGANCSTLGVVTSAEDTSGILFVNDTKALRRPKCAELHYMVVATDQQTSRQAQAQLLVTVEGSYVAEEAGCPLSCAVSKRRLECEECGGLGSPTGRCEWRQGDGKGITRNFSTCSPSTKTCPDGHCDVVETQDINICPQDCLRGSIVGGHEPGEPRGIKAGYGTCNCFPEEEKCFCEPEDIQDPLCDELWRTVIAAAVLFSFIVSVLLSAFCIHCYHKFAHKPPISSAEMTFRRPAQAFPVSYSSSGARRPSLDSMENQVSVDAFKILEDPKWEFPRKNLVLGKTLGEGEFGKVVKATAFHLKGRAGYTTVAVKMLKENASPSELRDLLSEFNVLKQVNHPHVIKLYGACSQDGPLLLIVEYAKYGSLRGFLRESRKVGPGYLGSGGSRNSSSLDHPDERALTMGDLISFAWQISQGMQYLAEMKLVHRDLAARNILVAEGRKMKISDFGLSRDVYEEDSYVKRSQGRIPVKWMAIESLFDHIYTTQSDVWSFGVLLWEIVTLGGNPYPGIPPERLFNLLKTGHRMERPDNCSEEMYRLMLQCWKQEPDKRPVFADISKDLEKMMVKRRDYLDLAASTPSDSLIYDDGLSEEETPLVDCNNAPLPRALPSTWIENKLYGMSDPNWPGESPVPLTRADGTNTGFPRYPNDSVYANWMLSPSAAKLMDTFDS

- IC50 (RET): ~0.3 nM
SMILES: C[C@H]1CNC(=O)c2cnn3cc4c(nc23)N(Cc2cc(F)cnc2O1)[C@@H]1CCC[C@@H]1O4 [Compound 5, (3aR,11S,20aS)-7-fluoro-11-methyl-2,3,3a,12,13,20a-hexahydro-1H,5H-17-19-(metheno)cyclopenta[5,6][1,4] oxazino[3,4-i]pyrazolo[4,3-f]pyrido[3,2-l][1,4,8,10]oxatriazacyclotridecin-14(11H)-one]
- mean tumor volume (TMV) compared to control group (BaF3 KIF5B-RET WT tumors; 1 mg/kg BID (p>0.05) and 5 mg/kg BID (p<0.0001), 10 days): lower
- body weight and overt abnormality (BaF3 KIF5B-RET WT tumors; 1 mg/kg BID and 5 mg/kg BID, 10 days): No body weight loss or overt abnormality
- tumor growth inhibition (TGI) (BaF3 KIF5B-RET WT tumors; 1 mg/kg BID orally for 10 days): 21%
- tumor regression (BaF3 KIF5B-RET WT tumors; 5 mg/kg BID orally for 10 days): 63%
